Measured values: patent US11378572B2, “Therapeutic agent for immune cell migration-caused disease and method for screening same” (ZYMEDI CO., LTD., priority 2017, dated 2022)

Legend:
PAH model = test: Monocrotaline PAH model, anti-KRS antibody; assay type: in vivo, SD rats
From the text: To induce PAH in 7-week-old SD rats (Orient bio), 60 mpk of MCT (monocrotaline) was subcutaneously injected. Then rats were divided into 4 groups (5 animals in each group), and administered with either of 1 mpk of mock human IgG (Thermo Fisher Scientific, negative control), 1 mpk or 10 mpk of anti-KRS antibody (N3 antibody), 25 mpk of sildenafil (positive control) for 3 weeks. All antibodies were intravenously injected twice a week and sildenafil was orally administered everyday.
Three weeks later, rats were anesthetized with isoflurane, and blood flow and pressure were measured using an MPVS cardiovascular pressure and volume system (model name: MPVS Ultra, manufactured by Millar Instruments). Right ventricular systolic pressure (RVESP) and diastolic pressure, left ventricular systolic pressure and diastolic pressure were measured using a dedicated catheter (Mikro-Tip rat pressure catheter, manufactured by Millar Instruments). Cardiac output was measured using a perivascular blood flow probe (Transonic® Flowprobes, manufactured by […]), and experimental techniques were performed in the same manner as described in the literature: Pacher P, Nagayama T, Mukhopadhyay P, Batkai S, Kass D A. Measurement of cardiac function using pressure-volume conductance catheter technique in mice and rats. Nat Protoc 2008, 3(9):1422-34.
Collected lungs were fixed in PFA (paraformaldehyde) according to a conventional procedure, and then embedded in paraffin through water washing, dehydration, and tissue clearing processes. Lung tissue paraffin blocks of rats were cut to a thickness of […] and slides were prepared. Thereafter, staining was performed as follows. First, slides were treated with xylene 3 times for 5 minutes, followed by treatments with 100% ethanol, 95% ethanol, 90% ethanol, 70% ethanol, DW for 2 minutes in this order and washed with PBS for 5 minutes. After treatment with 0.3% H2O2, slides were washed twice with PBS for 5 minutes. After soaking in 0.01M citrate buffer and heating, slides were washed with PBS-T (0.03% tween 20). After 30 minutes blocking at room temperature (2% BSA & 2% goat serum in PBS), tissues were stained with anti-CD68 antibody (1:200, ED1 clone, Abcam) overnight at 4° C. After washing three times with PBS-T for 5 minutes, tissues were treated with polymer-HRP anti-mouse envision kit (DAKO) for 1 hour at 4° C. After washing three times with PBS-T, color was developed by treatment with DAB substrate buffer and DAB chromogen 20. Thus stained tissues were treated with Mayer's hematoxylin (Sigma) for 1 minute, and then treated twice for 2 minutes in the order of 70% ethanol, 90% ethanol, 95% ethanol, and 100% ethanol. Finally, xylene was treated three times for 5 minutes and observed with an optical microscope.

KRS = target: T1, KRS (Mus musculus, UniProt Q99MN1); test: KRS level in plasma membrane/cytosol fractions by western blot (KRS translocation to the plasma membrane); assay type: cell-based; conditions: RAW 264.7 cells, LN421 l g/ml, 0, 12, 24 hour
T1 construct: KRS, which is expressed in monocytes/macrophages and usually present in the cytoplasmic domain, translocates to the plasma membrane by LN421 treatment; endogenous in cells; host or cells: RAW 264.7
Protocol: After dispensing RAW 264.7 cells (2×10^6 cells) in 100 mm dish and incubating for 18 hours, cells were treated with LN421 l g/ml in serum free DMEM media and harvested at 0 hour, 12 hour, 24 hour. Proteins of RAW 264.7 cells were separated into the cytosol and membrane fractions using ProteoExtract Subcellular Proteome Extraction Kit (Calbiotech, cat #539790). Obtained proteins were electrophoresed and transferred to PVDF membrane (Milipore) and blocked with 3% skim milk. KRS was then detected by western blot. Specifically, KRS polyclonal antibody (rabbit, Neomics, Co. Ltd. #NMS-01-0005) was added and reacted for 1 hour. Unbound antibody was removed and the membrane was added and reacted with anti-rabbit secondary antibody (ThermoFisher Scientific, #31460). After reacting with the secondary antibody, films were exposed in the dark room using ECL reagent as a substrate. […]
First, in order to determine whether various KRS inhibitor candidates could exert inhibitory effect on the KRS translocation to the plasma membrane, RAW 264.7 cells (2×10^6 cells) were dispensed in 100 mm dishes and incubated for 18 hours, followed by treatment with laminin 421 1 μg/ml in serum free DMEM, and 100 nM of each of various KRS inhibitor candidates, and cells were further incubated for 12 hours. […] Afterwards, KRS was detected by western blot, and the specific method were as described in Example 3. […]

RAW 264.7 cells = test: Transwell migration assay of monocytes/macrophages; assay type: cell-based
Protocol: Among several extracellular matrix (ECM), it was examined which ECM promotes the migration and infiltration of immune cells, typically monocytes/macrophages. A transwell migration assay was performed using collagen (Col), fibronectin (FN) and laminin (LN) as extracellular matrices, and detailed methods were as follows. Transwells (Corning, #3421-5 mm) were coated with gelatin (0.5 mg/ml) and RAW 264.7 cells (1×10^5 cells/well) were seeded into the top chambers. Serum free DMEM (500 μl) containing 10 μg/ml of laminin (laminin mixture, Biolamina), fibronectin or collagen, respectively, was placed in the bottom chambers. After 24 hours, cells were fixed with 70% methanol for 30 minutes and stained with 50% hematoxylin for 30 minutes. After removing non-migrating cells from the top of the membrane with a cotton swab, the membrane was taken and mounted on the slide. Migrating cells on the underside of the membrane were observed and quantified under a high magnification microscope.
Effect of laminin subtypes on the immune cell migration and infiltration was evaluated. A transwell migration assay was performed in the same manner as in Example 1 using LN111, LN211, LN221, LN411, LN421, LN511, and LN521 as various laminin subtype proteins (purchased from Biolamina). Specific sequences of laminin subtypes are referred to α4 chain of SEQ ID NO:4, α2 chain of SEQ ID NO: 10, α5 chain of SEQ ID NO: 11, β2 chain of SEQ ID NO:6, β1 chain of SEQ ID NO: 12, γ1 chain of SEQ ID NO: 8. according to the chain forming each laminin subtype,
For each of the transformed macrophages, a transwell migration assay was performed in the same manner as in Example 1 using 1 μg/ml of laminin 421.
Thus identified agents as inhibiting the translocation of KRS to the plasma membrane was added to the LN421-treated macrophages to perform a transwell migration assay. […] Migrating cells on the underside of the membrane were observed and quantified under a high magnification microscope. […]

[1] = MCT + sildenafil 25 mpk oral everyday, 3 weeks (n = 5)

T1 sequence (Q99MN1 whole entry, the tested form may be a part): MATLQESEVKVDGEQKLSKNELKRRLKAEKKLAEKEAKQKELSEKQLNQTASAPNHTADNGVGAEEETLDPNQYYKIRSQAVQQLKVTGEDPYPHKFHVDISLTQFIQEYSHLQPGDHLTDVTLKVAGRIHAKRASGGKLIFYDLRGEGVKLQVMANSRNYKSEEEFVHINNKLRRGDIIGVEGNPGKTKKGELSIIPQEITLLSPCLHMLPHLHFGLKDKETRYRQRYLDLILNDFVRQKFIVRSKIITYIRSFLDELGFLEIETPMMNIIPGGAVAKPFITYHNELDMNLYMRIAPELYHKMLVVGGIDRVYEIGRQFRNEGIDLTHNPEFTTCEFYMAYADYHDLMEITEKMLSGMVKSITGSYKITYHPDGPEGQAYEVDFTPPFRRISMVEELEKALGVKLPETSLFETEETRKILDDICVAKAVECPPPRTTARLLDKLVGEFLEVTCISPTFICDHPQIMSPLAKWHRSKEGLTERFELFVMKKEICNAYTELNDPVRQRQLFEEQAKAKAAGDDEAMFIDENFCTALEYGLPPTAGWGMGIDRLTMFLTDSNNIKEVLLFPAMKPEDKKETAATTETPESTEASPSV

## CCCc1nn(C)c2c(=O)[nH]c(-c3cc(S(=O)(=O)N4CCN(C)CC4)ccc3OCC)nc12 [sildenafil]
PAH model; MCT + sildenafil 25 mpk oral everyday, 3 weeks (n = 4)
  CO: 49.6 ± 17.7 mL/min
PAH model; [1]
  LVEDP: 3.6 ± 2.3 mmHg
  LVESP: 83.2 ± 4.7 mmHg
  RVEDP: 2.6 ± 1.3 mmHg
  RVESP: 48.4 ± 9.6 mmHg
PAH model; MCT + sildenafil (n = 5)
  body weight, absolute change: 104.1 ± 26.4 g
  body weight, relative change: 49.8 ± 10.5%
PAH model; number of animals with finding
  findings of D-shaped left ventricle (echocardiography): three mice

## LN421: laminin subtype α4β2γ1, purchased from Biolamina [reference compound]
KRS
  level of KRS detection in the plasma membrane fractions: increased
RAW 264.7 cells; LN111, LN211, LN221, LN411, LN421, LN511, LN521 compared
  migration of monocytes/macrophages among laminin subtypes: specifically reacted

## laminin [reference compound]
RAW 264.7 cells; 10 μg/ml in bottom chamber, 24 hours, versus collagen, fibronectin
  migration of monocytes/macrophages among extracellular matrices: most strongly promoted
